Here are results for 14 molecules from ChEMBL document CHEMBL5046253, “Synthesis and bioevaluation of diaryl urea derivatives as potential antitumor agents for the treatment of human colorectal cancer” (Eur J Med Chem, 2022).

SMILES strings stand for the structures. pIC50: −log10 of the molar value.

In test [1] the target is Phosphatidylinositol 4,5-bisphosphate 3-kinase catalytic subunit alpha isoform (Homo sapiens, UniProt P42336). The experiment in a line: Inhibition of PI3Kalpha (unknown origin) using PIP2 as substrate in presence of ATP incubated for 60 mins by ADP-glo based luminescence assay. On the technique in general: ADP-Glo first removes unused ATP, then detects ADP through luciferase.

The target of test [2] is Serine/threonine-protein kinase mTOR (Homo sapiens, UniProt P42345). As to the kind of experiment: Inhibition of mTOR (unknown origin) using U-Light-4E-BP1 peptide as a substrate in presence of ATP incubated for 45 mins by Lance ultra assay.
Another test concerns MDA-MB-231. The experiment in a line: Antiproliferative activity against human MDA-MB-231 cells assessed as reduction in cell viability incubated for 48 hrs by MTT assay. It counts as functional, cell-based. The conditions noted are these: MDA-MB-231, 48 h. (In general: Tetrazolium assays rely on reduction of a dye to a coloured formazan, in cell work by metabolically active cells.)

The test system of another test is HeLa. As to the kind of experiment: Antiproliferative activity against human HeLa cells assessed as reduction in cell viability incubated for 48 hrs by MTT assay. Format: functional, cell-based.
For the next test, the system named is CNE-2. As to the kind of experiment: Antiproliferative activity against human CNE-2 cells assessed as reduction in cell viability incubated for 48 hrs by MTT assay. It counts as functional, cell-based. The conditions noted are these: CNE-2, 48 h.
For the next test, the system named is HCT-116. As to the kind of experiment: Antiproliferative activity against human HCT-116 cells assessed as reduction in cell viability incubated for 48 hrs by MTT assay. It counts as functional, cell-based. The conditions noted are these: HCT-116, 48 h.
The test system of another test is MCF7. As to the kind of experiment: Antiproliferative activity against human MCF7 cells assessed as reduction in cell viability incubated for 48 hrs by MTT assay. It counts as functional, cell-based. The conditions noted are these: MCF7, 48 h.
Another test deals with HepG2. As to the kind of experiment: Antiproliferative activity against human HepG2 cells assessed as reduction in cell viability incubated for 48 hrs by MTT assay. It counts as functional, cell-based. The note with it: HepG2, 48 h.
Test [3] deals with Phosphatidylinositol 4,5-bisphosphate 3-kinase catalytic subunit beta isoform (Homo sapiens, UniProt P42338). The experiment in a line: Inhibition of PI3Kbeta (unknown origin) using PIP2 as substrate in presence of ATP incubated for 60 mins by ADP-glo based luminescence assay.
Test [4] concerns the target Phosphatidylinositol 4,5-bisphosphate 3-kinase catalytic subunit gamma isoform (Homo sapiens, UniProt P48736). As to the kind of experiment: Inhibition of PI3Kgamma (unknown origin) using PIP2 as substrate in presence of ATP incubated for 60 mins by ADP-glo based luminescence assay.
In test [5] the target is T1, Phosphatidylinositol 4,5-bisphosphate 3-kinase catalytic subunit delta isoform (Homo sapiens, UniProt O00329).
T1 sequence (O00329 whole entry): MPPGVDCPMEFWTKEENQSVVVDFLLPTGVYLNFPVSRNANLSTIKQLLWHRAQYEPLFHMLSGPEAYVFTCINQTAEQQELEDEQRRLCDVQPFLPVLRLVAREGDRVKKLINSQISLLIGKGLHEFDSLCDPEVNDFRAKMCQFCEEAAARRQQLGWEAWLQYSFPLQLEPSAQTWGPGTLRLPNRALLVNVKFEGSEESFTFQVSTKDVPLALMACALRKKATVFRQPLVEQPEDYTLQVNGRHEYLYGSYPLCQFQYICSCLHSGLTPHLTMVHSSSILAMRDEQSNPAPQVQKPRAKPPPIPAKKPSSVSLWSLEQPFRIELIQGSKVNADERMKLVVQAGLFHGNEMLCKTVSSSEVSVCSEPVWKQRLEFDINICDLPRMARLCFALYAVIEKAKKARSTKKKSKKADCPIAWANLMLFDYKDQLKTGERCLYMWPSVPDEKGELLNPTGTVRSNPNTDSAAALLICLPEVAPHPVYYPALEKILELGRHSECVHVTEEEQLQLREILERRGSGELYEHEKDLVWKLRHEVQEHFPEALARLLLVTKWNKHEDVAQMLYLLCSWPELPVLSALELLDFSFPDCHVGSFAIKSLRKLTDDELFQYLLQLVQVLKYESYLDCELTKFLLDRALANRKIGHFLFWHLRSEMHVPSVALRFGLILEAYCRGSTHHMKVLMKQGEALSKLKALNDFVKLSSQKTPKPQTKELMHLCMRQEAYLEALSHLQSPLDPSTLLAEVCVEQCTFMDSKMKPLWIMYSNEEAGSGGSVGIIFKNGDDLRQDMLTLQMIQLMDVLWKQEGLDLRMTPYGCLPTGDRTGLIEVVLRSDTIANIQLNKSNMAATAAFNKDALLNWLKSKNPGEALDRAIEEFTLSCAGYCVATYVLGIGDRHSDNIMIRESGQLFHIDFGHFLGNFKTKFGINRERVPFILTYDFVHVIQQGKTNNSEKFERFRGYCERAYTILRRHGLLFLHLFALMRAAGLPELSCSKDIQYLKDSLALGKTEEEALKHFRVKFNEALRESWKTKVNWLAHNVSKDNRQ
As to the kind of experiment: Inhibition of PI3Kdelta (unknown origin) using PIP2 as substrate in presence of ATP incubated for 60 mins by ADP-glo based luminescence assay.

Another test concerns A-431. As to the kind of experiment: Antiproliferative activity against human A431 cells harboring wild type EGFR mutant assessed as reduction in cell viability incubated for 72 hrs by celltiter-glo assay. The conditions noted are these: A-431, 72 h. It counts as functional, cell-based. For orientation: ATP-based viability assays read luminescence as a measure of living cells.

A further test has as its system NCI-H1975. The experiment in a line: Antiproliferative activity against human NCI-H1975 cells harboring EGFR L858R/T790M double mutant assessed as reduction in cell viability incubated for 72 hrs by celltiter-glo assay. It counts as functional, cell-based. The note with it: NCI-H1975, 72 h.
In the next test the test system is BaF3. The experiment in a line: Antiproliferative activity against mouse BaF3 cells harboring EGFR L858R/T790M/C797S mutant assessed as reduction in cell viability incubated for 72 hrs by celltiter-glo assay. Format: toxicity, cell-based. The conditions noted are these: BaF3, 72 h.

Phosphatidylinositol 4,5-bisphosphate 3-kinase catalytic subunit beta isoform, sequence (P42338 whole entry, canonical isoform): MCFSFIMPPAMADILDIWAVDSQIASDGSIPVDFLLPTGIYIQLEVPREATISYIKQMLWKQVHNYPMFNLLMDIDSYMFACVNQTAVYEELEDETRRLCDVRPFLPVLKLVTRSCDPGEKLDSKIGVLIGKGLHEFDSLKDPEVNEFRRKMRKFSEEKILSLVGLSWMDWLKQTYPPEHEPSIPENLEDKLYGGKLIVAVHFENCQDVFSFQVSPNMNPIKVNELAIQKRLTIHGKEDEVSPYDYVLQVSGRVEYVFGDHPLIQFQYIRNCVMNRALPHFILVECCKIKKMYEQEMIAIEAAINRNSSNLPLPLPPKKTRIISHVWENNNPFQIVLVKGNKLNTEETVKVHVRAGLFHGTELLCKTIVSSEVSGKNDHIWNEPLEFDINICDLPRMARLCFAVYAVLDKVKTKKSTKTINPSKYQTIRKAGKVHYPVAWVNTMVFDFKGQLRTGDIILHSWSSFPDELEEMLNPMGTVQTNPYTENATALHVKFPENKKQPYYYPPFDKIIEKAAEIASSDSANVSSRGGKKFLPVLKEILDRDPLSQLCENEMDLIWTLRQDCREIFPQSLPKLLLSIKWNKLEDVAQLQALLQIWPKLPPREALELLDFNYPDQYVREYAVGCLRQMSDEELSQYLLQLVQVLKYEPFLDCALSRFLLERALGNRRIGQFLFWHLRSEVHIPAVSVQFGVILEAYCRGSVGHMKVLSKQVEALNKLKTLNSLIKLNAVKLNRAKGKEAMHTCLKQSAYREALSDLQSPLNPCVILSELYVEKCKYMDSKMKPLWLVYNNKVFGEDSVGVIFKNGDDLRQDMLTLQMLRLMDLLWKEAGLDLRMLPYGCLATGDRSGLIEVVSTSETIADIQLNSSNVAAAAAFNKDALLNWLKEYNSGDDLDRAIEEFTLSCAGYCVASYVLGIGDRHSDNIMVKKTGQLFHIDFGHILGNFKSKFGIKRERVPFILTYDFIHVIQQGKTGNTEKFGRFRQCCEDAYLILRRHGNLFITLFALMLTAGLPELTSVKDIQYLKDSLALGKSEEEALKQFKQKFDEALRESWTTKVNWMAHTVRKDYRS
Phosphatidylinositol 4,5-bisphosphate 3-kinase catalytic subunit alpha isoform, sequence (P42336 whole entry, canonical isoform): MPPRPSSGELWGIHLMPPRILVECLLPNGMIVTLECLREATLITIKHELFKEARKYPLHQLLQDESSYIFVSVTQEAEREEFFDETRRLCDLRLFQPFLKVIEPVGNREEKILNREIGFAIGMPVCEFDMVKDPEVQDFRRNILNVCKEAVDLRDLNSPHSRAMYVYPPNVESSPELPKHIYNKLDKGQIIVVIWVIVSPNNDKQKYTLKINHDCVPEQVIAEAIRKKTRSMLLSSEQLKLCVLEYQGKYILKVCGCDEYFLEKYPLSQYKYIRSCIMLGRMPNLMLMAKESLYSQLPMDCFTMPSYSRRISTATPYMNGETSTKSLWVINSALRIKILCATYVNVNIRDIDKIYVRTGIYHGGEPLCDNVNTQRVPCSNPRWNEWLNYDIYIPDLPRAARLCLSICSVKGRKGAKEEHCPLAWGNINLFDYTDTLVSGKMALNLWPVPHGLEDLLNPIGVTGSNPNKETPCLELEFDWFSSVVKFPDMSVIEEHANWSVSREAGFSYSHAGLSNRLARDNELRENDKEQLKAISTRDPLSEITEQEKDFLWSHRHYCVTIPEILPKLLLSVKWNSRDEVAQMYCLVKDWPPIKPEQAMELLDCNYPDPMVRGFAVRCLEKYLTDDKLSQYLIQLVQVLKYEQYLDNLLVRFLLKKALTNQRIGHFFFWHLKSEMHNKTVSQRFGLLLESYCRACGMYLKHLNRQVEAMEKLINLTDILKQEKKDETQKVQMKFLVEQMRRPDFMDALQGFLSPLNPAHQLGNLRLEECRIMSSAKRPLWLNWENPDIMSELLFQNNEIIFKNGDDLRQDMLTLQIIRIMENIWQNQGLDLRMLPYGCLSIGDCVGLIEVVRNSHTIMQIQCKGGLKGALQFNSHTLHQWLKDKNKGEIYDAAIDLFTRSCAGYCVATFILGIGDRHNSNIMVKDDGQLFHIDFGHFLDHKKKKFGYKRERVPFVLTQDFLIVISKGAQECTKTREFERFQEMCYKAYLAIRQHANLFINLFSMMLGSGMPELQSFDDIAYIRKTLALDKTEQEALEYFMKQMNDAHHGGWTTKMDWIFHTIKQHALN
Phosphatidylinositol 4,5-bisphosphate 3-kinase catalytic subunit gamma isoform, sequence (P48736 whole entry, canonical isoform): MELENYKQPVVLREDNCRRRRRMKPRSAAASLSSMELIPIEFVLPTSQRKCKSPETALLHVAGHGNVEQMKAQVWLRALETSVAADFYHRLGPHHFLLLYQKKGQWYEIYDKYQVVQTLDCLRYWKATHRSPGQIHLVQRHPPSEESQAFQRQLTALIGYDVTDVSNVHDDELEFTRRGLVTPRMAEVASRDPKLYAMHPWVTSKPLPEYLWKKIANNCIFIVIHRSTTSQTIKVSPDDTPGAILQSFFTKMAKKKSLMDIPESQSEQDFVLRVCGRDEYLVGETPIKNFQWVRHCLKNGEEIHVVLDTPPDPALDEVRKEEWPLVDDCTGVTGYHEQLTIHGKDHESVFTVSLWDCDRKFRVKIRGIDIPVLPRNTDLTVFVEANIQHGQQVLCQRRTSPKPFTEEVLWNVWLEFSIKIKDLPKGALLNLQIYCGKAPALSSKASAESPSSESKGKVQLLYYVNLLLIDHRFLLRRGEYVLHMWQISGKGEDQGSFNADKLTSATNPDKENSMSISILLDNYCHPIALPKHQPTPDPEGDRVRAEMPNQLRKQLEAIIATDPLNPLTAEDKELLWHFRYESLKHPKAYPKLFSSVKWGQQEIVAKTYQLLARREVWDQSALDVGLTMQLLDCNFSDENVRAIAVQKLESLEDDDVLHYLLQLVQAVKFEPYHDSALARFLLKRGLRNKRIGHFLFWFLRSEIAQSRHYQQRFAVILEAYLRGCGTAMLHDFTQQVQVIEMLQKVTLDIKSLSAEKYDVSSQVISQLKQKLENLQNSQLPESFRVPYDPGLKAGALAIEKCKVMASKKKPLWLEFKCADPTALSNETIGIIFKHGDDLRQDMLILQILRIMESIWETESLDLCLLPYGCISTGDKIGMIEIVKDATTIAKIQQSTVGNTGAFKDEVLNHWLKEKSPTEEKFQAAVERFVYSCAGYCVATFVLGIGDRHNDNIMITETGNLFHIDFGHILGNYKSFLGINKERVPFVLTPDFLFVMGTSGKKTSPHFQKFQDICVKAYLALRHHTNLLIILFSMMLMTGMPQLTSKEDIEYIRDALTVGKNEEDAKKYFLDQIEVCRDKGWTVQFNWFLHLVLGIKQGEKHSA

For `NC(=O)C1CCCCN1C(=O)c1ccc(NC(=O)Nc2ccc(-c3cc(N4CCOCC4)nc(N4CCOCC4)n3)cc2)cc1` (stereo not given), the negative-log IC50 (pIC50) (commonly −log10 of the IC50, conventionally taken in molar units) in test [1] was 7.78; in [2], 8.12; with MDA-MB-231, 5.28; with HeLa it was 5.82; in the test on CNE-2 it was 5.70; in the test on HCT-116 it was 5.59. The figures for the pIC50 in the test with MCF7 and in the test on HepG2 were 5.50 and 4.75, respectively.
As to `NC(=O)[C@@H]1CC(O)CN1C(=O)c1ccc(NC(=O)Nc2ccc(-c3nc(N4CCOCC4)nc(N4CCOCC4)n3)cc2)cc1` (stereo not given in full), the pIC50 in [1] is 8.26; in test [2] it was 8.66; in test [3] it was 7.92; in test [4], 7.01; in [5], 7.79; in the test with MDA-MB-231 it was 4.41. Moreover, the pIC50 in the test with HeLa was 4.87; in the test with CNE-2, 5.27; in the test on HCT-116 it was 5.32; in the test on HepG2, 5.50; in the test with A-431, 5.20; with NCI-H1975 it was 5.26. For the same molecule, the pIC50 in the test with BaF3 is 5.57.
For the molecule `NC(=O)C1CCCN(C(=O)c2ccc(NC(=O)Nc3ccc(-c4nc(N5CCOCC5)nc(N5CCOCC5)n4)cc3)cc2)C1` (stereo not given), the pIC50 was 8.80 in test [1]; 8.68 in test [2]; 6.60 with MDA-MB-231; 5.01 in the test on HeLa; 4.99 in the test on CNE-2; 6.13 in the test on HCT-116. In addition, the pIC50 in the test on MCF7 is 5.64; with HepG2, 6.89; in the test with A-431, 6.62; in the test with NCI-H1975 it was 6.22; in the test on BaF3, 6.53.
Regarding `CN(C)C1CCN(C(=O)c2ccc(NC(=O)Nc3ccc(-c4nc(N5CCOCC5)nc(N5C[C@@H]6OCCO[C@H]6C5)n4)cc3)cc2)CC1`, the pIC50 in test [1] was 7.99; in test [2], 8.32; with MDA-MB-231 it was 5.72; in the test with HeLa it was 5.10; in the test on CNE-2, 6.54; with HCT-116, 5.89. Further, the pIC50 in the test with MCF7 was 5.65; with HepG2, 6.70.
On to `NC(=O)[C@H]1CCCN1C(=O)c1ccc(NC(=O)Nc2ccc(-c3nc(N4CCOCC4)nc(N4CCOCC4)n3)cc2)cc1`, for which the pIC50 is 9.22 in test [1]; 8.64 in [2]; 8.49 in test [3]; 8.13 in test [4]; 7.89 in [5]; 5.13 with MDA-MB-231. Besides, the pIC50 with HeLa was 4.98; in the test with CNE-2, 6.74; with HCT-116, 6.54; in the test on MCF7 it was 4.98.
For `COC(=O)[C@@H]1C[C@@H](O)CN1C(=O)c1ccc(NC(=O)Nc2ccc(-c3nc(N4CCOCC4)nc(N4CCOCC4)n3)cc2)cc1`, the pIC50 was 7.54 in [1]; 8.48 in [2]; 6.37 in the test with MDA-MB-231; 5.84 in the test on HeLa; 5.57 in the test with CNE-2; 6.51 in the test with HCT-116. Further, the values for the pIC50 with MCF7 and with HepG2 were 6.15 and 5.05, respectively.
With `C[C@@H]1COCCN1c1nc(-c2ccc(NC(=O)Nc3ccc(C(=O)N4CCC[C@H]4C(N)=O)cc3)cc2)nc(N2CCOCC2)n1`, the pIC50 in [1] was 8.74; in [2], 9.00; in the test with MDA-MB-231 it was 5.89; in the test on HeLa it was 6.34; in the test on CNE-2, 6.46; in the test on HCT-116, 5.66. Further, the pIC50 in the test with MCF7 was 5.46; with HepG2, 5.99.
For the molecule `C[C@@H](NC(=O)c1ccc(NC(=O)Nc2ccc(-c3nc(N4CCOCC4)nc(N4CCOCC4)n3)cc2)cc1)C(N)=O`, the pIC50 was 9.05 in [1]; 8.68 in test [2]; 8.29 in [3]; 7.55 in test [4]; 7.60 in test [5]; 6.03 with MDA-MB-231. Further, the pIC50 with HeLa is 5.72; in the test on CNE-2, 4.90; in the test with HCT-116, 5.44; in the test with HepG2, 6.34; in the test on A-431, 5.94; in the test on NCI-H1975 it was 5.47. In addition, in the test with BaF3, the pIC50 was 6.26.
Take `COC(=O)[C@@H]1CCCN1C(=O)c1ccc(NC(=O)Nc2ccc(-c3nc(N4CCOCC4)nc(N4CCOCC4)n3)cc2)cc1`: the pIC50 in test [1] is 7.72; in test [2] it was 8.38; in the test with MDA-MB-231, 4.98; with HeLa, 5.01; in the test on CNE-2, 5.40; in the test with HCT-116, 5.57. Besides, the pIC50 with MCF7 was 5.04; with HepG2, 4.98.
Turning to `NC(=O)C1CCN(C(=O)c2ccc(NC(=O)Nc3ccc(-c4nc(N5CCOCC5)nc(N5CCOCC5)n4)cc3)cc2)CC1`, the pIC50 was 9.15 in test [1]; 8.72 in test [2]; 6.05 with MDA-MB-231; 5.86 with HeLa; 5.38 in the test on CNE-2; 5.82 in the test on HCT-116. In addition, the pIC50 in the test with MCF7 is 5.42; in the test with HepG2, 6.29; in the test on A-431, 6.23; in the test on NCI-H1975 it was 5.61; in the test on BaF3, 6.53.
Consider `CN(C)[C@@H]1C[C@@H](C(N)=O)N(C(=O)c2ccc(NC(=O)Nc3ccc(-c4nc(N5CCOCC5)nc(N5CCOCC5)n4)cc3)cc2)C1`, for which the pIC50 in [1] is 8.15; in [2], 8.66; in test [3] it was 7.83; in test [4], 7.71; in test [5] it was 7.54; in the test with MDA-MB-231 it was 4.84. The pIC50 with HeLa is 4.92; with CNE-2 it was 5.10; with HCT-116 it was 5.60; with A-431, 5.60; in the test on NCI-H1975, 5.54; in the test on BaF3 it was 5.47.
Consider `NC(=O)[C@@H]1CCCN1C(=O)c1ccc(NC(=O)Nc2ccc(-c3cc(N4CCOCC4)nc(N4CCOCC4)n3)cc2)cc1`, for which the pIC50 in test [1] is 7.86; in [2], 8.13; in the test with MDA-MB-231 it was 4.95; with HeLa, 4.87; in the test on CNE-2 it was 5.71; in the test with HCT-116, 5.09. Besides, the pIC50 was 5.10 in the test with MCF7 and 4.62 in the test with HepG2.
On to `C[C@H](NC(=O)c1ccc(NC(=O)Nc2ccc(-c3nc(N4CCOCC4)nc(N4CCOC[C@@H]4C)n3)cc2)cc1)C(N)=O`, for which the pIC50 in test [1] was 8.30; in test [2] it was 9.05; in test [3] it was 7.33; in test [4], 7.47; in test [5], 7.36.
Turning to `CN(C)[C@H]1C[C@@H](C(N)=O)N(C(=O)c2ccc(NC(=O)Nc3ccc(-c4nc(N5CCOCC5)nc(N5CCOCC5)n4)cc3)cc2)C1`, the pIC50 in test [1] is 8.04; in test [2], 8.51; in the test on MDA-MB-231, 4.72; in the test on HeLa it was 4.55; in the test on CNE-2, 5.18; in the test with HCT-116 it was 5.61. In the test on HepG2, the pIC50 is 4.73.
